Test results from the supplement of paper PMC11208160.

Experiment: recombinant barcode read abundance after kanamycin selection (control-corrected) (log10(CPM+1)); higher = more efficient recombination; sequences stand for … in AGTGCAGAGAAAATCGGCCAGTTTTCTCTGCCTGCAGTCCGCATGCCGT…AGATTTATGCAGCGGACTGCCTTTCTCCCAAAGTGATAAACCGGACAGTATCATGGACCGGTTTTCCCGGTAATCCGTATTTGCAAGGTTGGTTTCACT; site = the 11-nt target
Procedure: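 Pooled E. coli target-specificity screen for the IS621 bridge recombinase. Each library plasmid pairs an 11-nt target (CT core) with a bridge RNA whose target-binding loop (9-nt LTG + 4-nt RTG) is reprogrammed; the rest of the 177-nt WT IS621 bridge RNA scaffold is fixed. The plasmid is co-electroporated with a WT donor plasmid; recombinase is induced with 0.1 mM IPTG and recombinants are selected on kanamycin. Recombinant barcodes are sequenced, converted to CPM, averaged over two biological replicates and corrected by the unselected control CPM. Molecule = full bridge RNA written as DNA: LTG = specificity nt 1-9, RTG = reverse complement of specificity nt 8-11, in the WT scaffold.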
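Further: IS621 recombinase and bridge RNA in Escherichia coli cells.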

Sequence	recombinant barcode read abundance (log10)
ACTGGGCCTTGGGTTCTAACCTGTTGCGA (site ACTCGGCCTTC)	0.191
ACTGGGCCTTGGGTTCTAACCTGTTGCGA (site ACTGGGCCTTC)	2.67
ACTGTAACTTGGGTTCTAACCTGTTGCTT (site ACTATAACTAA)	0.102
ACTGTAACTTGGGTTCTAACCTGTTGCTT (site ACTCTAACTAA)	0.0186
ACTGTAACTTGGGTTCTAACCTGTTGCTT (site ACTGTAACTAA)	1.06
ACTGTAACTTGGGTTCTAACCTGTTGCTT (site ACTTTAACTAA)	0.0634
ACTTCTGCTTGGGTTCTAACCTGTTGCCT (site ACTTCACCTAG)	0.0609
ACTTCTGCTTGGGTTCTAACCTGTTGCCT (site ACTTCTGCTAG)	0.528
ACTTGACCTTGGGTTCTAACCTGTTGCAG (site ACTTGACCTCT)	1.83
ACTTGACCTTGGGTTCTAACCTGTTGCAG (site ATTTGACCTCG)	0.0223
ACTTGTTCTTGGGTTCTAACCTGTTGCCT (site ACTTGTTCTAG)	0.567
ACTTGTTCTTGGGTTCTAACCTGTTGCCT (site CCTTGTTCTAG)	0.202
ACTTGTTCTTGGGTTCTAACCTGTTGCCT (site GCTTGTTCTAG)	0.157
ACTTGTTCTTGGGTTCTAACCTGTTGCCT (site TCTTGTTCTAG)	0.0997
ACTTTAGCTTGGGTTCTAACCTGTTGCTT (site ACTTGAACTAA)	0.438
ACTTTAGCTTGGGTTCTAACCTGTTGCTT (site ACTTTAGCTAA)	0.399
AGAAAAGCTTGGGTTCTAACCTGTTGCAA (site AGAAAAGCTTT)	1.06
AGAAAAGCTTGGGTTCTAACCTGTTGCAA (site CATGCTTCTAG)	0.295
AGAAAGGCTTGGGTTCTAACCTGTTGCGC (site AGAAAGGCTGC)	2.32
AGAAAGGCTTGGGTTCTAACCTGTTGCGC (site GTGGGCACTAG)	0.0408
AGAACGTCTTGGGTTCTAACCTGTTGCCT (site AGAACGTCTAG)	1.09

Sequence	recombinant barcode read abundance (log10)
AGAACGTCTTGGGTTCTAACCTGTTGCCT (site AGAATGTCTAG)	0.0292
AGAACTCCTTGGGTTCTAACCTGTTGCTG (site AGAACTCCTCA)	0.323
AGAACTCCTTGGGTTCTAACCTGTTGCTG (site TCTTGCTCTAG)	0.0485
AGAAGTCCTTGGGTTCTAACCTGTTGCGG (site AGAAGTCCTCA)	0.0978
AGAAGTCCTTGGGTTCTAACCTGTTGCGG (site AGAAGTCCTCC)	1.91
AGAAGTCCTTGGGTTCTAACCTGTTGCGG (site AGAAGTCCTCG)	0.101
AGAAGTCCTTGGGTTCTAACCTGTTGCGG (site AGAAGTCCTCT)	1.32
AGACAGACTTGGGTTCTAACCTGTTGCGT (site AGACAGACTAC)	3.32
AGACAGACTTGGGTTCTAACCTGTTGCGT (site CAGAGCTCTCG)	0.0309
AGACCATCTTGGGTTCTAACCTGTTGCCT (site AGACCATCTAG)	0.751
AGACCATCTTGGGTTCTAACCTGTTGCCT (site AGATCATCTAA)	0.162
AGACCCTCTTGGGTTCTAACCTGTTGCCT (site AGACCCTCTAG)	2.91
AGACCCTCTTGGGTTCTAACCTGTTGCCT (site CGACCCTCTAG)	0.728
AGACCCTCTTGGGTTCTAACCTGTTGCCT (site GGACCCTCTAG)	0.304
AGACCCTCTTGGGTTCTAACCTGTTGCCT (site TGACCCTCTAG)	1.3
AGACGACCTTGGGTTCTAACCTGTTGCGG (site AGACGACCTCC)	2.95
AGACGACCTTGGGTTCTAACCTGTTGCGG (site GTCATGTCTGA)	0.016
AGACTAACTTGGGTTCTAACCTGTTGCCT (site AAACTAACTAG)	0.124
AGACTAACTTGGGTTCTAACCTGTTGCCT (site ACACTAACTAG)	0.0816
AGACTAACTTGGGTTCTAACCTGTTGCCT (site AGACTAACTAG)	1.54
AGACTAACTTGGGTTCTAACCTGTTGCCT (site ATACTAACTAG)	0.29

Sequence	recombinant barcode read abundance (log10)
AGACTCCCTTGGGTTCTAACCTGTTGCAC (site ACACGCCCTGT)	0.0745
AGACTCCCTTGGGTTCTAACCTGTTGCAC (site AGACTCCCTGT)	2.08
AGACTGACTTGGGTTCTAACCTGTTGCGG (site AGACTGACTCC)	2.18
AGACTGACTTGGGTTCTAACCTGTTGCGG (site TCCAAATCTAG)	0.232
AGACTGGCTTGGGTTCTAACCTGTTGCCT (site AGACTGGCTAG)	1.03
AGACTGGCTTGGGTTCTAACCTGTTGCCT (site CGACAGGCTAG)	0.176
AGAGAGGCTTGGGTTCTAACCTGTTGCGG (site AGAGAGGCTCC)	1.82
AGAGAGGCTTGGGTTCTAACCTGTTGCGG (site CGAGAGTCTCC)	0.125
AGAGAGTCTTGGGTTCTAACCTGTTGCTT (site AGAGAGTCTAA)	1.99
AGAGAGTCTTGGGTTCTAACCTGTTGCTT (site ATAGAGTCTAA)	0.602
AGAGCGACTTGGGTTCTAACCTGTTGCCT (site AGAGAGACTAG)	0.127
AGAGCGACTTGGGTTCTAACCTGTTGCCT (site AGAGCGACTAG)	0.727
AGAGCGACTTGGGTTCTAACCTGTTGCCT (site AGAGGGACTAG)	0.587
AGAGCGACTTGGGTTCTAACCTGTTGCCT (site AGAGTGACTAG)	0.0332
AGAGCGACTTGGGTTCTAACCTGTTGCTA (site AGAGCGACTTA)	0.654
AGAGCGACTTGGGTTCTAACCTGTTGCTA (site CTCTACCCTCT)	0.147
AGAGCTCCTTGGGTTCTAACCTGTTGCCG (site AGAGCTCCTCG)	1.03
AGAGCTCCTTGGGTTCTAACCTGTTGCCG (site AGATCTCCTAG)	0.468
AGAGGAGCTTGGGTTCTAACCTGTTGCAG (site AGAGATGCTCT)	0.115
AGAGGAGCTTGGGTTCTAACCTGTTGCAG (site AGAGGAGCTCT)	1.79
AGAGGGACTTGGGTTCTAACCTGTTGCCT (site AGAGAGACTAG)	1.25

Sequence	recombinant barcode read abundance (log10)
AGAGGGACTTGGGTTCTAACCTGTTGCCT (site AGAGCGACTAG)	0.0189
AGAGGGACTTGGGTTCTAACCTGTTGCCT (site AGAGGGACTAG)	2.34
AGAGGGACTTGGGTTCTAACCTGTTGCCT (site AGAGTGACTAG)	0.0172
AGAGTAGCTTGGGTTCTAACCTGTTGCAC (site AGAGTAGCTGT)	2.41
AGAGTAGCTTGGGTTCTAACCTGTTGCAC (site GTTTATACTTG)	0.0243
AGAGTAGCTTGGGTTCTAACCTGTTGCTA (site AGAGTAGCTTA)	1.31
AGAGTAGCTTGGGTTCTAACCTGTTGCTA (site CTCCCGACTGC)	0.0353
AGATAGCCTTGGGTTCTAACCTGTTGCCT (site AGATAGCCTAG)	2.01
AGATAGCCTTGGGTTCTAACCTGTTGCCT (site CGATAGCCTAG)	0.102
AGATAGCCTTGGGTTCTAACCTGTTGCCT (site GGATAGCCTAG)	0.157
AGATAGCCTTGGGTTCTAACCTGTTGCCT (site TGATAGCCTAG)	0.206
AGATCCACTTGGGTTCTAACCTGTTGCCT (site AGATCCACTAG)	0.832
AGATCCACTTGGGTTCTAACCTGTTGCCT (site CGATCCACTAG)	0.0967
AGATCCACTTGGGTTCTAACCTGTTGCCT (site GGATCCACTAG)	0.0847
AGATCCACTTGGGTTCTAACCTGTTGCCT (site TGATCCACTAG)	0.0724
AGATGGACTTGGGTTCTAACCTGTTGCAG (site AGATGGACTCT)	2.52
AGATGGACTTGGGTTCTAACCTGTTGCAG (site AGATGGCCTAT)	0.0344
AGATTCGCTTGGGTTCTAACCTGTTGCCG (site AGATTCCCTCG)	0.0487
AGATTCGCTTGGGTTCTAACCTGTTGCCG (site AGATTCGCTCG)	0.941
